# Measurements published in patent publication US11473088B2, “Method of treating cancer and method of sensitizing cancer cells to the action of chemotherapeutic agents via growth hormone receptor antagonists or knock down” (Ohio University, priority 2016, dated 2022).
# “Also recorded” adds a separate entry of the source. Read-outs that look alike come from different tables or passages of the source.
# Columns and labels:
# [1] = system: MALME-3M cells; assay: ABC transporter RNA (RT-qPCR) following drug treatment; assay type: cell-based, human; conditions: for Efflux Pumps (expression level change, p < 0.05): ABC-transporter pumps with significantly down-regulated RNA expressions: 24 hr. drug exposure, GHR-siRNA vs scr-siRNA transfected
# Experimental: (§1) Transfection was performed using siLentFect lipid reagent (Biorad #170-3360, Hercules, Calif.) following the manufacturer's protocol. […] Media was changed after 24 hours. RNA levels were analyzed 48 hours post transfection while protein levels were analyzed at 60 hours post-transfection. For drug treatment, drugs at the specified concentrations noted above were added to the cells 48 hours post-transfection and treated for 24 hours prior to quantitation of RNA expressions.
# (§2) RNA extraction, RT-qPCR, and protein extraction were performed as described in Example 1, above.
# [2] = system: MDA-MB-435 cells; assay: as above; assay type: cell-based, human; conditions: 24 hr. drug exposure, GHR-siRNA vs scr-siRNA transfected
# Experimental: as §1, §2
# [3] = system: SK-MEL-28 cells; assay: as above; assay type: cell-based, human; conditions: for Efflux Pumps (expression level change, p < 0.05): ABC-transporter pumps with significantly down-regulated RNA expressions: 24 hr. drug exposure, GHR-siRNA vs scr-siRNA transfected
# Experimental: as §1, §2
# [4] = system: SK-MEL-5 cells; assay: as above; assay type: cell-based, human; conditions: 24 hr. drug exposure, GHR-siRNA vs scr-siRNA transfected
# Experimental: as §1, §2
# [5] = system: MDA-MB-435 cells; assay: as above; assay type: cell-based, human; conditions: 24 hr sub-EC50 drug, 50 ng/mL hGH
# [6] = system: SK-MEL-5 cells; assay: as above; assay type: cell-based, human
# [7] = system: four melanoma cell lines; assay: Cell proliferation / EC50 determination; conditions: read-out: EC50 ranges for the four melanoma cell lines
# Experimental: (§4) A 1% (w/v) resazurin (Sigma-Aldrich #R7017) solution in 1× PBS was made and filter-sterilized. The final concentration of resazurin in the assay was 0.004%. Inside the proliferating cells, mildly fluorescent blue resazurin is reduced to a bright pink fluorescent product called resorufin (stable for 4 hours), which allows for a quantitative measure of the percentage of proliferating cells. In all cases, cells were incubated at 37° C. in 5% CO2 for 45-60 min. for adequate sensitivity of detection. Briefly, cells were seeded at 10,000 cells/cm^2 into 96-well plates and transfected as described above. The resazurin assay was performed 60 hours after transfection (unless specified otherwise) and resorufin absorbance was measured at 570 nm (reference wavelength=600 nm) using Spectramax250 (Molecular Devices, Sunnyvale, Calif.) and SoftmaxPro software.
# More specifically, SK-MEL-28 cells (FIG. 8A, panel 1), MALME-3M cells (FIG. 8A, panel 2), MDA-MB-435 cells (FIG. 8A, panel 3), and SK-MEL-5 cells (FIG. 8A, panel 4) were treated with increasing doses of hGH for 48 hr. and cell proliferation was estimated using a resazurin-based metabolic assay.
# For treatment of melanoma cells, the following five anti-tumor compounds were obtained from the sources mentioned: cisplatin (Calbiochem #232120, Darmstadt, Germany), doxorubicin (Sigma Aldrich #D-1515, St. Louis, Mo.), oridonin (Sigma-Aldrich #O-9639, St. Louis, Mo.), Paclitaxel (Sigma-Aldrich #C-7191), and vemurafenib/PLX4032 (ApexBio #A-3004, Houston, Tex.). […] In the subsequent experiments, the following drug concentrations were used unless specified otherwise: cisplatin (0.5 μM), doxorubicin (10 nM), oridonin (0.5 μM), paclitaxel (1 nM), vemurafenib (2 nM). Treatments were performed for 24 hours starting 48 hours post-transfection with siRNA.
# [8] = system: SK-MEL-28 cells; assay: RT-qPCR time course after doxorubicin addition; assay type: cell-based, human; conditions: 188 nM doxorubicin
# Experimental: (§3) Following treatments, cells were lysed, and RNA extraction was performed using IBI Tri-isolate kit (IBI), following manufacturer's protocol. RT-qPCR was performed as described previously.
# [9] = system: SK-MEL-28 cells; assay: EC50 of doxorubicin (cell viability); assay type: cell-based; conditions: Homo sapiens, Example 3, read-out: EC50 of doxorubicin against SK-MEL-28 cells
# Experimental: Cell viability, following treatments, was performed using Invitrogen's PrestoBlue cell viability assay system. As described previously, it is a resazurin based assay which is reduced to resorufin (absorption at 570 nm) by the reducing environment of metabolically viable cells. It was performed in a 96-well system as described previously.
# [10] = system: MALME-3M cells; assay: Cell proliferation (resazurin) assay; assay type: cell-based, human; conditions: Homo sapiens, EC50 levels (cisplatin 10 μM, paclitaxel 5 nM), 24 hr, with and without siRNA mediated KD of GHR
# Experimental: For hGH treatment, 16 hours after seeding (or 24 hours post-transfection), the cells were serum-starved for 2 hours in serum-free growth media, and hGH (phosphate buffered saline was used as control where applicable) was added at the noted concentrations (0-, 5-, 50-, and 150 ng/ml). Cells were subsequently incubated for 24 hours before evaluating RNA levels. Recombinant hGH was purchased from Antibodies Online (#ABIN2017921, Atlanta, Ga.).
# On the other hand, a pronounced drop in proliferation levels in all the cell lines was seen when GHR was knocked down. […] Cell proliferation was estimated using resazurin-based metabolic assay. […] Averages of at least four independent experiments performed in quadruplicate were taken [*, p<0.05, Students t-test]. The results may indicate that human melanoma cells utilize GH-GHR interaction to drive aggressive tumor phenotypes.
# To determine this, and referring now to FIGS. 35A-35D, changes in amounts of calcein retained inside cells following treatment with calcein-AM ester was analyzed by the fluorescence readout from intracellular calcein. Increased abundance of transporter pumps is reflected by decreased levels of intracellular calcein. […] Assays were performed 48 hr. post-transfection with either scr-siRNA or GHR-siRNA. […] SK-MEL-28 (FIG. 35C) and MALME-3M (FIG. 35D) cells were exposed to DMSO (vehicle), or 10 um cisplatin (Cis), or 5 nM paclitaxel (Pac) for 24 hr. Treatments were done 48 hr. post-transfection with either scr-siRNA (scr) or GHR-siRNA (GHR). Mean of three independent experiments performed in triplicate was taken. [*, p<0.05, Students t test, n=3]
# [11] = system: SK-MEL-28 cells; assay: Cell proliferation (resazurin) assay; assay type: cell-based; conditions: Homo sapiens, EC50 levels (cisplatin 10 μM, paclitaxel 5 nM), 24 hr, with and without siRNA mediated KD of GHR
# Experimental: as §4
# [12] = system: B16F10 mouse melanoma cells; assay: ABC-transporter RNA in bGH treated cells (RT-qPCR); assay type: cell-based
# Experimental: as §3
# GH upregulates ABC-transporter expression in mouse melanoma B16F10 cells in vitro and in vivo: B16F10 mouse melanoma cells were treated with 50 or 500 ng/mL bGH for 6, 24, 48 or 72 hr and the changes in the RNA levels of specific multidrug exporter pumps were analyzed over time and GH dose. […] RNA extracted from B16F10 tumors grown in GHRKO or bGH mice were analyzed for the above ABC-transporters. In bGH mice, the tumor cells and resulting tumors were exposed in vivo to high endogenous GH and high IGF-1; while in GHRKO mice, the tumor cells and resulting tumors were exposed in vivo to high GH but low IGF1.
# [13] = 24-hour drug, presence vs absence of 50 ng/mL GH
# [14] = 24 hr sub-EC50 drug, 50 ng/mL hGH
molecule,measurement,setting,value
N.N.[Cl][Pt][Cl] [cisplatin],ABCB8 RNA expression on drug exposure in presence of GH,[1]; [13],increase
same,"Efflux Pumps (expression level change, p < 0.05): ABC-transporter pumps with significantly down-regulated RNA expressions",[1],ABCB1
same,"Efflux Pumps (expression level change, p < 0.05): ABC-transporter pumps with significantly down-regulated RNA expressions",[2],"ABCB1, ABCB8, ABCC2, ABCG1,; also recorded: ABCG2"
same,ABCB1 RNA level in response to drug,[3]; [14],Significant upregulation
same,ABCB5 RNA level in response to drug,[3]; [14],significantly upregulated
same,ABCG1 RNA level in response to drug,[3]; [14],surged
same,"Efflux Pumps (expression level change, p < 0.05): ABC-transporter pumps with significantly down-regulated RNA expressions",[3],"ABCB1, ABCB5, ABCB8, ABCG1"
same,"Efflux Pumps (expression level change, p < 0.05): ABC-transporter pumps with significantly down-regulated RNA expressions",[4],"ABCB1, ABCC1, ABCC2, ABCG2"
same,ABCB1 RNA level in response to drug,[5],Significant upregulation
same,ABCC2 RNA level in response to drug,[5],significantly increased
same,ABCG1 RNA level in response to drug,[5],surged
same,ABCG2 RNA level in response to drug,[5],significantly upregulated
same,ABCB5 RNA expression on drug exposure in presence of GH,[6]; [13],increase
same,ABCB8 RNA expression on drug exposure in presence of GH,[6]; [13],increase
same,ABCG2 RNA expression on drug exposure in presence of GH,[6]; [13],increase
same,EC50,[7],3000 to 15000 nM
COc1cccc2c1C(=O)c1c(O)c3c(c(O)c1C2=O)C[C@@](O)(C(=O)CO)C[C@@H]3O[C@H]1C[C@H](N)[C@H](O)[C@H](C)O1 [doxorubicin],ABCC2 RNA expression on drug exposure in presence of GH,[1]; [13],increase
same,ABCG1 RNA expression on drug exposure in presence of GH,[1]; [13],increase
same,ABCB8 RNA level in response to drug,[1]; [14],significant upregulation
same,ABCG1 RNA level in response to drug,[1]; [14],surged
same,"Efflux Pumps (expression level change, p < 0.05): ABC-transporter pumps with significantly down-regulated RNA expressions",[1],"ABCB8, ABCC1, ABCG1, ABCG2"
same,"Efflux Pumps (expression level change, p < 0.05): ABC-transporter pumps with significantly down-regulated RNA expressions",[2],"ABCB1, ABCB5, ABCC2, ABCG1"
same,ABCB1 RNA expression on drug exposure in presence of GH,[3]; [13],upregulation
same,ABCB8 RNA expression on drug exposure in presence of GH,[3]; [13],upregulation
same,ABCB5 RNA level in response to drug,[3]; [14],significantly upregulated
same,ABCG1 RNA level in response to drug,[3]; [14],surged
same,ABCG2 RNA level in response to drug,[3]; [14],significantly upregulated
same,"Efflux Pumps (expression level change, p < 0.05): ABC-transporter pumps with significantly down-regulated RNA expressions",[3],"ABCB8, ABCC1, ABCG1, ABCG2"
same,"Efflux Pumps (expression level change, p < 0.05): ABC-transporter pumps with significantly down-regulated RNA expressions",[4],"ABCB1, ABCB8, ABCG2"
same,rise in ABCB1 RNA,[8]; 12-hr,4 fold
same,rise in ABCG1 RNA,[8]; 12-hr,8 fold
same,"transcript levels of CDH2, VIM and SNAI1",[8]; 12-hr after addition,increased significantly
same,GER levels (RNA),[8]; by 24-hr,concomitant rise
same,rise in autocrine GH transcript,[8]; by 24-hr,> 2 fold
same,"RNA levels of ABCB8, ABCC1 and ABCC4 drug efflux pumps",[8]; end of 24 hr,significantly higher levels
same,increase in CDH2 transcript,[8]; end of 24 hr,> 3.5 fold
same,increase in SNAI1 transcript,[8]; end of 24 hr,> 2 fold
same,reduction in the epithelial marker CDH1/E-cadherin,[8]; end of 24 hr,> 8 fold
same,EC50,[9],188 nM
same,ABCB5 RNA level in response to drug,[5],significantly upregulated
same,ABCB8 RNA level in response to drug,[5],significant upregulation
same,ABCB5 RNA expression on drug exposure in presence of GH,[6]; [13],increase
same,ABCB8 RNA level in response to drug,[6]; [14],significant upregulation
same,ABCG2 RNA level in response to drug,[6]; [14],significantly upregulated
same,EC50,[7]; Homo sapiens,25 to 100 nM
C=C1C(=O)[C@]23[C@H](O)[C@H]1CC[C@H]2[C@@]12CO[C@]3(O)[C@@H](O)[C@@H]1C(C)(C)CC[C@@H]2O [oridonin],EC50,[7]; Homo sapiens,2000 to 8000 nM
"CC(=O)O[C@H]1C(=O)[C@@]2(C)[C@H]([C@H](OC(=O)c3ccccc3)[C@]3(O)C[C@H](OC(=O)[C@H](O)[C@@H](NC(=O)c4ccccc4)c4ccccc4)C(C)=C1C3(C)C)[C@]1(OC(C)=O)CO[C@@H]1C[C@@H]2O [paclitaxel, Paclitaxel]",inhibition at 0.005 µM,[10],> 90%
same,inhibition at 0.005 µM,[11],> 90%
same,ABCB8 RNA level in response to drug,[1]; [14],significant upregulation
same,ABCC2 RNA level in response to drug,[1]; [14],significantly increased
same,"Efflux Pumps (expression level change, p < 0.05): ABC-transporter pumps with significantly down-regulated RNA expressions",[1],"ABCB8, ABCC1, ABCG1"
same,"Efflux Pumps (expression level change, p < 0.05): ABC-transporter pumps with significantly down-regulated RNA expressions",[2],"ABCB5, ABCB8, ABCG1, ABCG2"
same,ABCG2 RNA expression on drug exposure in presence of GH,[3]; [13],upregulation
same,ABCB5 RNA level in response to drug,[3]; [14],significantly upregulated
same,ABCC1 RNA level in response to drug,[3]; [14],particularly upregulated
same,ABCC2 RNA level in response to drug,[3]; [14],significantly increased
same,ABCG1 RNA level in response to drug,[3]; [14],surged
same,ABCG2 RNA level in response to drug,[3]; [14],significantly upregulated
same,"Efflux Pumps (expression level change, p < 0.05): ABC-transporter pumps with significantly down-regulated RNA expressions",[3],"ABCB5, ABCC1, ABCG1, ABCG2"
same,"Efflux Pumps (expression level change, p < 0.05): ABC-transporter pumps with significantly down-regulated RNA expressions",[4],"ABCB8, ABCC1, ABCC2"
same,ABCG1 RNA level in response to drug,[5],surged
same,ABCB5 RNA expression on drug exposure in presence of GH,[6]; [13],increase
same,ABCB8 RNA level in response to drug,[6]; [14],significant upregulation
same,ABCC1 RNA level in response to drug,[6]; [14],particularly upregulated
same,ABCC2 RNA level in response to drug,[6]; [14],significantly increased
same,EC50,[7]; Homo sapiens,2 to 8 nM
CCCS(=O)(=O)Nc1ccc(F)c(C(=O)c2c[nH]c3ncc(-c4ccc(Cl)cc4)cc23)c1F [vemurafenib],EC50,[7]; Homo sapiens,2 to 20 nM
"bGH: growth hormone (bGH) added at 50 or 500 ng/mL to B16F10 mouse melanoma cells (protein, UniProt P01246 27-217, looked up) Somatotropin: AFPAMSLSGLFANAVLRAQHLHQLAADTFKEFERTYIPEGQRYSIQNTQVAFCFSETIPAPTGKNEAQQKSDLELLRISLLLIQSWLGPLQFLSRVFTNSLVFGTSDRVYEKLKDLEEGILALMRELEDGTPRAGQILKQTYDKFDTNMRSDDALLKNYGLLSCFRKDLHKTETYLRVMKCRRFGEASCAF","RNA expression of Abcb1, Abcg1 and Abcg2","[12]; 50 and 500 ng/mL bGH, 24, 48, and 72 hr",significantly higher RNA expression
same,"levels of Abcb8, Abcc1, Abcc2, and Abcc4 vs untreated controls",[12]; any dose or time-point in vitro,not significantly different
